Measurements from ChEMBL document CHEMBL3232814, “Synthesis and anticancer structure activity relationship investigation of cationic anthraquinone analogs” (2014).

Experiments:
Assay type in all cases: functional
[1] = tested on: U-251; test: Growth inhibition of human U251 cells
[2] = tested on: A549; test: Growth inhibition of human A549 cells
[3] = Growth inhibition of human SF295 cells; conditions: SF-295
[4] = tested on: NCI-H23; test: Growth inhibition of human NCI-H23 cells
[5] = tested on: COLO 205; test: Growth inhibition of human COLO205 cells
[6] = tested on: SNB-75; test: Growth inhibition of human SNB75 cells
[7] = tested on: Malme-3M; test: Growth inhibition of human MALME-3M cells
[8] = Growth inhibition of human UACC257 cells
[9] = Growth inhibition of human HCC2998 cells
[10] = Growth inhibition of human SF539 cells
[11] = tested on: HOP-62; test: Growth inhibition of human HOP62 cells
[12] = tested on: SK-MEL-5; test: Growth inhibition of human SK-MEL-5 cells
[13] = tested on: Staphylococcus aureus; test: Antimicrobial activity against Staphylococcus aureus ATCC 25923 after 12 to 18 hrs by 2-fold serial dilution method
[14] = tested on: NCI-H322M; test: Growth inhibition of human NCI-H322M cells
[15] = tested on: HT-29; test: Growth inhibition of human HT-29 cells
[16] = tested on: NCI-H226; test: Growth inhibition of human NCI-H226 cells
[17] = tested on: SW-620; test: Growth inhibition of human SW620 cells
[18] = Growth inhibition of human LOXIMVI cells; conditions: LOX IMVI
[19] = tested on: SF-268; test: Growth inhibition of human SF268 cells
[20] = tested on: KM12; test: Growth inhibition of human KM12 cells
[21] = Growth inhibition of human HCT15 cells; conditions: HCT-15
[22] = Growth inhibition of human UACC62 cells
[23] = tested on: SK-MEL-28; test: Growth inhibition of human SK-MEL-28 cells
[24] = tested on: SK-MEL-2; test: Growth inhibition of human SK-MEL-2 cells
[25] = Growth inhibition of human NCI60 cells assessed as cell growth; parameters: concentration or dose not given beside the values
[26] = tested on: HCT-116; test: Growth inhibition of human HCT116 cells
[27] = Growth inhibition of human HOP92 cells
[28] = tested on: SNB-19; test: Growth inhibition of human SNB19 cells
[29] = tested on: MDA-MB-435; test: Growth inhibition of human MDA-MB-435 cells
[30] = tested on: M14; test: Growth inhibition of human M14 cells
[31] = tested on: NCI-H460; test: Growth inhibition of human NCI-H460 cells
[32] = tested on: NCI-H522; test: Growth inhibition of human NCI-H522 cells
[33] = read-out: LC50 (the source's name)

SMILES: COc1cc(-n2n[n+](C)c3c2C(=O)c2ccccc2C3=O)cc(OC)c1OC.O=S(=O)([O-])C(F)(F)F
- GI50 [1]: 1.54 µM
- LC50 [1]: 5.52 µM
- GI50 [2]: 1.68 µM
- CC50 [2, 33]: > 100 µM
- GI50 [3]: 0.54 µM
- LC50 (concentration killing 50% of cells) [3]: 4.67 µM
- GI50 [4]: 1.94 µM
- GI50 [5]: 0.39 µM
- CC50 [5, 33]: 5.05 µM
- GI50 [6]: 1.43 µM
- CC50 [6, 33]: 5.34 µM
- GI50 [7]: 0.3 µM
- CC50 [7, 33]: 3.26 µM
- GI50 ([8]; UACC-257): 1.37 µM
- CC50 ([8]; UACC-257, read-out: LC50 (the source's name)): 5.81 µM
- GI50 ([9]; HCC 2998): 1.63 µM
- CC50 ([9]; HCC 2998, read-out: LC50 (the source's name)): 8.22 µM
- GI50 ([10]; SF-539): 0.4 µM
- CC50 ([10]; SF-539, read-out: LC50 (the source's name)): 3.8 µM
- GI50 [11]: 1.31 µM
- CC50 [11, 33]: 7.22 µM
- GI50 [12]: 0.24 µM
- LC50 (lethal concentration 50) [12]: 2.32 µM
- MIC [13]: 32 µg/mL
- GI50 [14]: 0.4 µM
- CC50 [14, 33]: 5.27 µM
- GI50 [15]: 0.34 µM
- LC50 [15]: > 100 µM
- GI50 [16]: 1.8 µM
- CC50 [16, 33]: 18 µM
- GI50 [17]: 1.99 µM
- CC50 [17, 33]: > 100 µM
- GI50 [18]: 1.19 µM
- CC50 [18, 33]: > 100 µM
- GI50 [19]: 0.87 µM
- CC50 [19, 33]: > 100 µM
- GI50 [20]: 2.11 µM
- CC50 [20, 33]: > 100 µM
- GI50 [21]: 1.35 µM
- GI50 ([22]; UACC-62): 1.23 µM
- CC50 ([22]; UACC-62, read-out: LC50 (the source's name)): 6.12 µM
- GI50 [23]: 1.37 µM
- CC50 [23, 33]: 7.11 µM
- GI50 [24]: 1.75 µM
- CC50 [24, 33]: 8.09 µM
- Activity [25]: -27.06%
- GI50 [26]: 0.46 µM
- CC50 [26, 33]: 18 µM
- GI50 ([27]; HOP-92): 1.92 µM
- CC50 ([27]; HOP-92, read-out: LC50 (the source's name)): > 100 µM
- GI50 [28]: 1.4 µM
- LC50 [28]: 6.99 µM
- GI50 [29]: 0.19 µM
- CC50 [29, 33]: 0.67 µM
- GI50 [30]: 0.48 µM
- CC50 [30, 33]: 4.51 µM
- GI50 [31]: 0.79 µM
- CC50 [31, 33]: > 100 µM
- GI50 [32]: 1.71 µM
- CC50 [32, 33]: 8.38 µM
